Like-named read-outs stand apart in the source and are kept apart here.
How the values were obtained:
[1] = system: Bacillus subtilis PCI 219; assay: antimicrobial activity, serial dilution method on agar plate; assay type: cell-based
Experimental: (§1) The antimicrobial activity of the following test compounds on various test organisms listed below was determined by the serial dilution method on agar plate (Heart Infusion agar produced by Difco Co.) (see CHEMOTHERAPY 22, pp. 1126-1128 (1974)), and the minimum inhibitory concentrations (mcg/ml) obtained are shown in Table 1 below.
(§2) A sample of each test organism was prepared so that the population of the organism was 1×10^8 cells/ml (O.D. 660 mμ=0.07 to 0.16) and 1×10^6 cells/ml (which was obtained by diluting the above 1×10^8 cells/ml preparation).

[2] = system: Escherichia Coli NIHJ JC-2 (IFO 12734); assay: as above; assay type: cell-based; details: Escherichia coli, read-out: Minimum Inhibitory Concentration
Experimental: as §1, §2

Escherichia Coli NIHJ = assay: as above; assay type: cell-based
Experimental: as §1, §2

[3] = system: Klebsiella pneumoniae ST-101; assay: as above; assay type: cell-based
Experimental: as §1, §2

Klebsiella pneumoniae = assay: as above; assay type: cell-based
Experimental: as §1, §2

[4] = system: Proteus morganii IID Kono; assay: as above; assay type: cell-based; details: Morganella morganii
Experimental: as §1, §2

Proteus rettgeri NIH 96 = assay: as above; assay type: cell-based; details: Providencia rettgeri
Experimental: as §1, §2

[5] = system: Proteus vulgaris IID OX-19; assay: as above; assay type: cell-based; details: read-out: Minimum Inhibitory Concentration
Experimental: as §1, §2

[6] = system: Pseudomonas aeruginosa ATCC 10145; assay: as above; assay type: cell-based
Experimental: as §1, §2

[7] = system: Salmonella typhi 0-901 (NCTC 8393); assay: as above; assay type: cell-based; details: Salmonella enterica
Experimental: as §1, §2

[8] = system: Serattia marcescens IFO 12648; assay: as above; assay type: cell-based
Experimental: as §1, §2

Shigella Sonnei EW 33 = assay: as above; assay type: cell-based; details: read-out: Minimum Inhibitory Concentration
Experimental: as §1, §2

[9] = system: Staphylococcus aureus FDA 209 P; assay: as above; assay type: cell-based
Experimental: as §1, §2

[10] = system: Yersinia enterocolitica 0-3; assay: as above; assay type: cell-based
Experimental: as §1, §2

[11] = system: Aeromonas hydrophila IFO 12658; assay: antimicrobial activity on bacteria which cause infectious diseases in fish; assay type: cell-based
Experimental: as §1, §2
(§3) In the same manner as above, the antimicrobial activity of the following compounds on various test organisms which cause infectious diseases in fish was determined.

[12] = system: Aeromonas hydrophila IFO 12981; assay: as above; assay type: cell-based
Experimental: as §1, §2, §3

[13] = system: Aeromonas salmonicida IFO 12659; assay: as above; assay type: cell-based
Experimental: as §1, §2, §3

[14] = system: Aeromonas salmonicida IFO 12718; assay: as above; assay type: cell-based
Experimental: as §1, §2, §3

[15] = system: Pseudomonas fluorescens IFO 12180; assay: as above; assay type: cell-based; details: IFO12180, read-out: Minimum Inhibitory Concentration
Experimental: as §1, §2, §3

[16] = system: Pseudomonas fluorescens IFO 12568; assay: as above; assay type: cell-based
Experimental: as §1, §2, §3

[17] = system: Vibrio anguillarum IFO 12710; assay: as above; assay type: cell-based
Experimental: as §1, §2, §3

[18] = system: Vibrio anguillarum IFO 13266; assay: as above; assay type: cell-based
Experimental: as §1, §2, §3

[19] = acute toxicity by intravenous administration in mice; details: mouse, in vivo, i.v., mice not fed for 12 hours
Experimental: The acute toxicity of the compounds of this invention having the formula (I) was determined by intravenous administration (i.v.) in mice which had not been fed for 12 hours prior to the test. LD50 values (50% lethal dose) obtained are set forth below:
In the same manner as above, LD50 values were determined for all the other test compounds and the LD50 values obtained were at least 500 mg/kg.

[20] = system: Pseudomonas aeruginosa E-2; assay: antimicrobial activity, serial dilution method on agar plate; assay type: cell-based; details: E2, inoculum 1 × 10^8 cells/ml, read-out: Minimum Inhibitory Concentration
Experimental: as §1, §2

[21] = system: Pseudomonas aeruginosa NCTC 10490; assay: as above; assay type: cell-based; details: NCTC10490, inoculum 1 × 10^8 cells/ml, read-out: Minimum Inhibitory Concentration
Experimental: as §1, §2

[22] = read-out: Minimum Inhibitory Concentration, inoculum 1 × 10^6 cells/ml
[23] = read-out: Minimum Inhibitory Concentration, inoculum 1 × 10^8 cells/ml
[24] = inoculum 1 × 10^8 cells/ml, read-out: Minimum Inhibitory Concentration
[25] = NIH96, inoculum 1 × 10^8 cells/ml, read-out: Minimum Inhibitory Concentration
[26] = ATCC10145, inoculum 1 × 10^8 cells/ml, read-out: Minimum Inhibitory Concentration
[27] = FDA209, inoculum 1 × 10^8 cells/ml, read-out: Minimum Inhibitory Concentration

O=C(O)c1cn2c3c(c(N4CCNCC4)ccc3c1=O)CCC2 [B]
0.4 µg/mL: MIC ([12]; IFO12981, inoculum 10^6, read-out: Minimum Inhibitory Concentration) | MIC ([14]; IFO12718, inoculum 10^6, read-out: Minimum Inhibitory Concentration) | MIC ([18]; IFO13266, read-out: Minimum Inhibitory Concentration, inoculum 10^6)
12.5 µg/mL: MIC ([1]; PCI219, read-out: Minimum Inhibitory Concentration, inoculum 1 × 10^6 cells/ml) | MIC ([1]; PCI219, read-out: Minimum Inhibitory Concentration, inoculum 1 × 10^8 cells/ml) | MIC [4, 23] | MIC ([5]; IIDOX19, inoculum 1 × 10^8 cells/ml) | MIC ([6]; ATCC10145, read-out: Minimum Inhibitory Concentration, inoculum 1 × 10^8 cells/ml) | MIC ([9]; FDA209, read-out: Minimum Inhibitory Concentration, inoculum 1 × 10^6 cells/ml) | MIC ([10]; Yersinia enterocolitica, 03, read-out: Minimum Inhibitory Concentration, inoculum 1 × 10^8 cells/ml) | MIC ([17]; IFO12710, read-out: Minimum Inhibitory Concentration, inoculum 10^8)
6.3 µg/mL: MIC (Klebsiella pneumoniae; [23]) | MIC [4, 22] | MIC ([6]; ATCC10145, read-out: Minimum Inhibitory Concentration, inoculum 1 × 10^6 cells/ml) | MIC [8, 23] | MIC [15]
50 µg/mL: MIC ([16]; IFO12568, read-out: Minimum Inhibitory Concentration, inoculum 10^8)
3.1 µg/mL: MIC [2] | MIC [8, 22] | MIC ([10]; Yersinia enterocolitica, 03, read-out: Minimum Inhibitory Concentration, inoculum 1 × 10^6 cells/ml) | MIC ([17]; IFO12710, read-out: Minimum Inhibitory Concentration, inoculum 10^6)
0.8 µg/mL: MIC (Escherichia Coli NIHJ; [22]) | MIC ([7]; inoculum 1 × 10^6 cells/ml, read-out: Minimum Inhibitory Concentration) | MIC [7, 24] | MIC ([11]; IFO12658, inoculum 10^6, read-out: Minimum Inhibitory Concentration) | MIC ([12]; IFO12981, inoculum 10^8, read-out: Minimum Inhibitory Concentration) | MIC ([13]; IFO12659, inoculum 10^6, read-out: Minimum Inhibitory Concentration) | MIC ([14]; IFO12718, inoculum 10^8, read-out: Minimum Inhibitory Concentration) | MIC ([18]; IFO13266, read-out: Minimum Inhibitory Concentration, inoculum 10^8)
1.6 µg/mL: MIC (Escherichia Coli NIHJ; [23]) | MIC ([3]; ST101, read-out: Minimum Inhibitory Concentration, inoculum 1 × 10^6 cells/ml) | MIC ([3]; ST101, read-out: Minimum Inhibitory Concentration, inoculum 1 × 10^8 cells/ml) | MIC (Klebsiella pneumoniae; [22]) | MIC (Proteus rettgeri NIH 96; NIH96, read-out: Minimum Inhibitory Concentration, inoculum 1 × 10^6 cells/ml) | MIC (Proteus rettgeri NIH 96; NIH96, read-out: Minimum Inhibitory Concentration, inoculum 1 × 10^8 cells/ml) | MIC ([5]; IIDOX19, inoculum 1 × 10^6 cells/ml) | MIC (Shigella Sonnei EW 33; inoculum 1 × 10^6 cells/ml) | MIC (Shigella Sonnei EW 33; inoculum 1 × 10^8 cells/ml) | MIC ([11]; IFO12658, inoculum 10^8, read-out: Minimum Inhibitory Concentration) | MIC ([13]; IFO12659, inoculum 10^8, read-out: Minimum Inhibitory Concentration)
25 µg/mL: MIC ([16]; IFO12568, read-out: Minimum Inhibitory Concentration, inoculum 10^6)
1100 mg/kg: LD50 [19]
2.5 µg/mL: MIC ([9]; FDA209, read-out: Minimum Inhibitory Concentration, inoculum 1 × 10^8 cells/ml)

CC1(C)SC2C(NC(=O)C(NC(=O)c3cn4c5c(c(N6CCN(S(C)(=O)=O)CC6)ccc5c3=O)CCC4)c3ccccc3)C(=O)N2C1C(=O)O (stereo not drawn) [Compound J, 6-{2-[8-(4-Methanesulfonyl-1-piperazinyl)-6,7-dihydro-1-oxo-1H,5H--benzo[ij]quinolizine-2-carboxamido]-2-phenylacetamido}-3,3-dimethyl-7-oxo-4-thia-1-azabicyclo[3,2,0]-heptane-2-carboxylic acid, reference compound]
50 µg/mL: MIC [8, 24]
3.1 µg/mL: MIC (Escherichia Coli NIHJ; [24]) | MIC [21] | MIC [7, 23]
25 µg/mL: MIC [20]
0.8 µg/mL: MIC [9, 27]
6.3 µg/mL: MIC (Klebsiella pneumoniae; [24]) | MIC (Shigella Sonnei EW 33; inoculum 1 × 10^8 cells/ml)
12.5 µg/mL: MIC (Proteus rettgeri NIH 96; [25]) | MIC [6, 26]

CC1(C)SC2C(NC(=O)C(NC(=O)c3cn4c5c(c(N6CCNCC6)cc(Cl)c5c3=O)CCC4)c3ccccc3)C(=O)N2C1C(=O)O (stereo not drawn) [Compound K, 6-{2-[10-Chloro-8-(1-piperazinyl)-6,7-dihydro-1-oxo-1H,5H--benzo[ij]quinolizine-2-carboxamido]-2-phenylacetamido}-3,3-dimethyl-7-oxo-4-thia-1-azabicyclo[3,2,0]heptane-2-carboxylic acid, reference compound]
0.8 µg/mL: MIC [9, 27]
3.1 µg/mL: MIC [21] | MIC [7, 23] | MIC (Shigella Sonnei EW 33; inoculum 1 × 10^8 cells/ml)
12.5 µg/mL: MIC (Proteus rettgeri NIH 96; [25]) | MIC [6, 26] | MIC [8, 24]
25 µg/mL: MIC [20]
6.3 µg/mL: MIC (Escherichia Coli NIHJ; [24]) | MIC (Klebsiella pneumoniae; [24])
